Measured values reported in the kinase profiling compilation of Christmann-Franck et al. (2016).

Columns and labels:
Experiment in all cases: radiometric filter-binding kinase assay
[1] = biological target: BRSK2 (human) (UniProt Q8IWQ3)
[2] = biological target: EPHB4 (human) (UniProt P54760)
[3] = biological target: STK3 (human) (UniProt Q13188)
[4] = biological target: MST4 (human) (UniProt Q9P289)
[5] = biological target: CHEK1 (human) (UniProt O14757)
[6] = biological target: MARK4 (human) (UniProt Q96L34)
[7] = biological target: NTRK1 (human) (UniProt P04629)
[8] = biological target: EEF2K (human) (UniProt O00418)
[9] = biological target: SRC (human) (UniProt P12931)
[10] = biological target: PRKCA (human) (UniProt P17252)
[11] = biological target: MAPK1 (human) (UniProt P28482)
Sequence of MAPK1 (human) (P28482 whole entry, looked up): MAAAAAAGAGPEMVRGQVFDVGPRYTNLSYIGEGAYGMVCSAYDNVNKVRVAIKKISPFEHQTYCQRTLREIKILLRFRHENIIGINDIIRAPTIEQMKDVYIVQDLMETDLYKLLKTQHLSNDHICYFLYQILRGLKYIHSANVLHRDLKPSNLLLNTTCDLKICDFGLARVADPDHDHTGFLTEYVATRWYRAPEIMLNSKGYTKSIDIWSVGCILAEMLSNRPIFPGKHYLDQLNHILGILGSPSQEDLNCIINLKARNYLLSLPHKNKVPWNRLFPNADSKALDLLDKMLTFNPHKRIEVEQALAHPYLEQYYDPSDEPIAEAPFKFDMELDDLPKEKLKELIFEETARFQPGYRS

[12] = biological target: CLK2 (human) (UniProt P49760)
Sequence of CLK2 (human) (P49760 whole entry, looked up): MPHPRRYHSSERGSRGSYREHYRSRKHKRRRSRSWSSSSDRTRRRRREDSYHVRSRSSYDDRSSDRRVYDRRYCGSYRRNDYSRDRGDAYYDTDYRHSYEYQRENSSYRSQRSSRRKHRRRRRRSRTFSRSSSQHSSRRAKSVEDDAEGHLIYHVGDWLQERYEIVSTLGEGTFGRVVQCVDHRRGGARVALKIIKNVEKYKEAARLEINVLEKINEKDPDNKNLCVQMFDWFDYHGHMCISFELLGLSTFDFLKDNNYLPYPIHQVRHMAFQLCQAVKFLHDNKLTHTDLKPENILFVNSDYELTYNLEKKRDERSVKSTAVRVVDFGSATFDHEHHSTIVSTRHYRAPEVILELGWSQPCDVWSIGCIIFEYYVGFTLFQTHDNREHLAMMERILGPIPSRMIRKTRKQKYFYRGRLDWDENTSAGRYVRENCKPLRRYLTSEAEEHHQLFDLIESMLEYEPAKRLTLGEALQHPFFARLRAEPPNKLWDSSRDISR

[13] = biological target: GCK (human) (UniProt Q12851)
[14] = biological target: HIPK3 (human) (UniProt Q9H422)
[15] = biological target: PLK1 (human) (UniProt P53350)
[16] = biological target: RPS6KA1 KD1 KD2 (human) (UniProt Q15418)
Sequence of RPS6KA1 KD1 KD2 (human) (Q15418 whole entry, looked up): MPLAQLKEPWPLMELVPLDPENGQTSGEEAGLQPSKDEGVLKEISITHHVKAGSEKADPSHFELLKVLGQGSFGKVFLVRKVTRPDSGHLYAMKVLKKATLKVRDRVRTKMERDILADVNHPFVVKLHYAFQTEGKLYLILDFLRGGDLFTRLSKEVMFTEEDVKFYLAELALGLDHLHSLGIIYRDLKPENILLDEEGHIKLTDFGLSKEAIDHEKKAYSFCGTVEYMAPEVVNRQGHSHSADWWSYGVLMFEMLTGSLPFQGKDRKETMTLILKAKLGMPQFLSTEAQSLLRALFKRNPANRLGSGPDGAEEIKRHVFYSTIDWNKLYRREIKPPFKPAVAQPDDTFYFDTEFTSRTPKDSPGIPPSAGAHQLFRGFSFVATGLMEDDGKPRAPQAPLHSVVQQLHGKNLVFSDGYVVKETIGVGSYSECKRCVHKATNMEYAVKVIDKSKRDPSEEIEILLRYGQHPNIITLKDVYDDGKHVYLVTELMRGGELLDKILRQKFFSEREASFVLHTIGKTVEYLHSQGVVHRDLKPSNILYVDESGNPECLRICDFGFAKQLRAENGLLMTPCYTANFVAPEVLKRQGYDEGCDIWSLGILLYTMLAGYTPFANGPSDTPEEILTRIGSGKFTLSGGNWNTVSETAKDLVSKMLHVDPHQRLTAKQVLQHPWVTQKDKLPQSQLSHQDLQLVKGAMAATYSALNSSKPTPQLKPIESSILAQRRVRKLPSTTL

[17] = biological target: JAK2 JH1 JH2 (human) (UniProt O60674)
[18] = biological target: AURKA (human) (UniProt O14965)
[19] = biological target: DAPK1 (human) (UniProt P53355)
[20] = biological target: ERBB4 (human) (UniProt Q15303)
[21] = biological target: CHEK2 (human) (UniProt O96017)
Sequence of CHEK2 (human) (O96017 whole entry, looked up): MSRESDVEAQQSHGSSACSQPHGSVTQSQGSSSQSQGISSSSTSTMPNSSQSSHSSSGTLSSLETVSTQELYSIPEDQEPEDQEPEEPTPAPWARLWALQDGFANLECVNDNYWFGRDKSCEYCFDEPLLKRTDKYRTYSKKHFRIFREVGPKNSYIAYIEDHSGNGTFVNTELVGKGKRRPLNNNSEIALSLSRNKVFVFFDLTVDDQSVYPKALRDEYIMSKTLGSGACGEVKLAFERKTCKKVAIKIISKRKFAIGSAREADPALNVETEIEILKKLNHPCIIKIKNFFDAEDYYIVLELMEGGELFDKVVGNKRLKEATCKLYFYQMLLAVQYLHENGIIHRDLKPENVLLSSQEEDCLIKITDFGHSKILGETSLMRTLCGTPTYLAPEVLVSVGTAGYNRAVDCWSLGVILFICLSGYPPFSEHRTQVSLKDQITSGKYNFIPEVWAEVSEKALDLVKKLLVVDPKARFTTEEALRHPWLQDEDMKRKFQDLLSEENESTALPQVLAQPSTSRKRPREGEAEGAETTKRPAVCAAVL

[22] = biological target: CDK2 CCNA2 (human) (UniProt P20248+P24941)
[23] = biological target: TAOK1 (human) (UniProt Q7L7X3)
[24] = biological target: HIPK1 (human) (UniProt Q86Z02)
Sequence of HIPK1 (human) (Q86Z02 whole entry, looked up): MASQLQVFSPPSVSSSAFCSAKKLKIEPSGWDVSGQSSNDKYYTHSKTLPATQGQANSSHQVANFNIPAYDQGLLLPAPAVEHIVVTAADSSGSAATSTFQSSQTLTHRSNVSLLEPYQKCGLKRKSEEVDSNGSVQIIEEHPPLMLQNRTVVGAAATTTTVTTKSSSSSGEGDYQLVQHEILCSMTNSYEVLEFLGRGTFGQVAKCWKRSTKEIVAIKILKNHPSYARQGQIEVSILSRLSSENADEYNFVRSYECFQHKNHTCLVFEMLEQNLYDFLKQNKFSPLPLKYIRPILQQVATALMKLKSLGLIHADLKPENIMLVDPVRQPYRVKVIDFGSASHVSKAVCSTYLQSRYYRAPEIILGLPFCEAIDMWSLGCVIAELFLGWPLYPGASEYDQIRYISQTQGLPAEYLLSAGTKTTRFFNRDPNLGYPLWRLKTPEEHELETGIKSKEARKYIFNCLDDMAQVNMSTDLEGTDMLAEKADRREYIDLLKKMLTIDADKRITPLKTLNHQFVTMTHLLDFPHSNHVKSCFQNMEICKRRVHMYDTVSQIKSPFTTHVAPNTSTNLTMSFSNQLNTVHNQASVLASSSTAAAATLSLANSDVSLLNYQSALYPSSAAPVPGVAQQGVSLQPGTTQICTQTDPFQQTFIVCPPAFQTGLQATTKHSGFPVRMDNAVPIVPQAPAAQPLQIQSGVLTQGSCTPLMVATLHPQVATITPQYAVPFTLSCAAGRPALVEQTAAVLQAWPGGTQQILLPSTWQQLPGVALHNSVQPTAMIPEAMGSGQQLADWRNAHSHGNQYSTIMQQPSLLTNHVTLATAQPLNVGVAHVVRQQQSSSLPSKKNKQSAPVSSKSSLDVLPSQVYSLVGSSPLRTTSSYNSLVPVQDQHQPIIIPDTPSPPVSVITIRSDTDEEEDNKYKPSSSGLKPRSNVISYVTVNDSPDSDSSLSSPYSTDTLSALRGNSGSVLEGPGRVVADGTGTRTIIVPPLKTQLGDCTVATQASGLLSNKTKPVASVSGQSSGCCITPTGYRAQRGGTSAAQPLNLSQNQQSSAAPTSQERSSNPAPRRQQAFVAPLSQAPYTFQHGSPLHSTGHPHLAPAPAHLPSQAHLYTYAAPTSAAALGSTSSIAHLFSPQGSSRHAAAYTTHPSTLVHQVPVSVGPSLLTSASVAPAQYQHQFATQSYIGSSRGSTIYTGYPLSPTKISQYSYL

[25] = biological target: FLT1 (human) (UniProt P17948)
[26] = biological target: RPS6KA5 KD1 KD2 (human) (UniProt O75582)
[27] = biological target: PRKCZ (human) (UniProt Q05513)
[28] = biological target: PAK6 (human) (UniProt Q9NQU5)
[29] = biological target: MAP3K5 (human) (UniProt Q99683)
[30] = biological target: NUAK1 (human) (UniProt O60285)
Sequence of NUAK1 (human) (O60285 whole entry, looked up): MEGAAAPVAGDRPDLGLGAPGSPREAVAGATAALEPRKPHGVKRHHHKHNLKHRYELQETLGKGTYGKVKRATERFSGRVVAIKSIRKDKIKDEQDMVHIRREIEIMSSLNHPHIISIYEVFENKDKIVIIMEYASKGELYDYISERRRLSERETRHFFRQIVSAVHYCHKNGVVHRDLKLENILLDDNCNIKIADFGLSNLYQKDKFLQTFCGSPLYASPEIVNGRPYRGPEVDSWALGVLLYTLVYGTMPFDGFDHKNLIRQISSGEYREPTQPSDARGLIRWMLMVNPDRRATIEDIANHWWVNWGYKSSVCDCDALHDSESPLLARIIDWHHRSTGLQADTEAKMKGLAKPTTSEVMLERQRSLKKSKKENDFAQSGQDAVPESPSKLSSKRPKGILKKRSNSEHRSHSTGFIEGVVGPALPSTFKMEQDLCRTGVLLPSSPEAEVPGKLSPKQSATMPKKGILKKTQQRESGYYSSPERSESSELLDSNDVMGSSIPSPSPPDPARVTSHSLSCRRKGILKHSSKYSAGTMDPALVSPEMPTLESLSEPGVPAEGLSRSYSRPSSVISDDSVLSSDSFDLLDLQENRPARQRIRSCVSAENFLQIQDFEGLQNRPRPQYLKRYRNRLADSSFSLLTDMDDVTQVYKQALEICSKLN

[31] = biological target: RPS6KA3 KD1 KD2 (human) (UniProt P51812)
[32] = biological target: MARK3 (human) (UniProt P27448)
Sequence of MARK3 (human) (P27448 whole entry, looked up): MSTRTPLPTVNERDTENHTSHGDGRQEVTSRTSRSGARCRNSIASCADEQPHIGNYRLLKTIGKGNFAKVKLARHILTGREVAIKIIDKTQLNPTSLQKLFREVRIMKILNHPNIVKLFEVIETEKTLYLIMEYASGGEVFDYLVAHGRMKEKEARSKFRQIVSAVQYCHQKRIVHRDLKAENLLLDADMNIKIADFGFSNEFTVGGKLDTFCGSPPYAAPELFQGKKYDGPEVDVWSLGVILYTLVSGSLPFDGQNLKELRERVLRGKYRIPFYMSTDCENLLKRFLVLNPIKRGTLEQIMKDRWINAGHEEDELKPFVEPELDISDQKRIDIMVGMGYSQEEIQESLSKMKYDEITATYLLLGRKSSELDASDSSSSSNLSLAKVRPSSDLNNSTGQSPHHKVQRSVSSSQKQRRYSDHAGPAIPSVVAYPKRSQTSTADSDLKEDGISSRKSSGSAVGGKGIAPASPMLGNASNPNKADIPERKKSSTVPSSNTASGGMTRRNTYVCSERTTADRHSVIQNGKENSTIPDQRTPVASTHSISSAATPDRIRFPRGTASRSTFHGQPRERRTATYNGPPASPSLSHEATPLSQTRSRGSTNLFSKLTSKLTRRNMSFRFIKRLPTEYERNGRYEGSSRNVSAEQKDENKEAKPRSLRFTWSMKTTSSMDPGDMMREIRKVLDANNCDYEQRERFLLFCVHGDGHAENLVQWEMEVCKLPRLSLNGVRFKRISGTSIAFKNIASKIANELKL

[33] = system: SGK1 (human), O00141 [S422D]
[34] = biological target: MAPK3 (human) (UniProt P27361)
[35] = biological target: MAP3K1 (human) (UniProt Q13233); settings: compound 0.01 µM

COc1ccc(N(C(=O)Nc2c(C)cccc2C)c2cc(Nc3ccc(N4CCN(C)CC4)cc3)ncn2)c(OC)c1
residual activity ([1]; compound 0.1 µM): 97%
residual activity ([1]; compound 1.0 µM): 88%
residual activity ([2]; compound 0.01 µM): 110%
residual activity ([2]; compound 0.1 µM): 80%
residual activity ([2]; compound 1.0 µM): 5%
residual activity ([3]; compound 0.01 µM): 112%
residual activity ([3]; compound 0.1 µM): 109%
residual activity ([3]; compound 1.0 µM): 118%
residual activity ([4]; compound 0.01 µM): 100%
residual activity ([4]; compound 0.1 µM): 95%
residual activity ([4]; compound 1.0 µM): 78%
residual activity ([5]; compound 0.01 µM): 95%
residual activity ([5]; compound 0.1 µM): 100%
residual activity ([5]; compound 1.0 µM): 86%
residual activity ([6]; compound 0.01 µM): 120%
residual activity ([6]; compound 0.1 µM): 101%
residual activity ([6]; compound 1.0 µM): 67%
residual activity ([7]; compound 0.01 µM): 98%
residual activity ([7]; compound 1.0 µM): 89%
residual activity ([8]; compound 0.1 µM): 108%
residual activity ([8]; compound 1.0 µM): 89%
residual activity ([9]; compound 0.01 µM): 45%
residual activity ([9]; compound 0.1 µM): 9%
residual activity ([9]; compound 1.0 µM): 3%
residual activity ([10]; compound 0.01 µM): 102%
residual activity ([10]; compound 0.1 µM): 102%
residual activity ([10]; compound 1.0 µM): 104%
residual activity ([11]; compound 0.01 µM): 103%
residual activity ([11]; compound 0.1 µM): 110%
residual activity ([11]; compound 1.0 µM): 109%
residual activity ([12]; compound 0.01 µM): 97%
residual activity ([12]; compound 0.1 µM): 100%
residual activity ([12]; compound 1.0 µM): 108%
residual activity ([13]; compound 0.01 µM): 103%
residual activity ([13]; compound 0.1 µM): 72%
residual activity ([13]; compound 1.0 µM): 21%
residual activity ([14]; compound 0.01 µM): 80%
residual activity ([14]; compound 0.1 µM): 86%
residual activity ([14]; compound 1.0 µM): 74%
residual activity ([15]; compound 0.01 µM): 98%
residual activity ([15]; compound 0.1 µM): 102%
residual activity ([15]; compound 1.0 µM): 97%
residual activity ([16]; compound 0.01 µM): 106%
residual activity ([16]; compound 0.1 µM): 91%
residual activity ([16]; compound 1.0 µM): 38%
residual activity ([17]; compound 0.01 µM): 99%
residual activity ([17]; compound 0.1 µM): 88%
residual activity ([17]; compound 1.0 µM): 89%
residual activity ([18]; compound 0.01 µM): 98%
residual activity ([18]; compound 0.1 µM): 91%
residual activity ([18]; compound 1.0 µM): 70%
residual activity ([19]; compound 0.1 µM): 88%
residual activity ([19]; compound 1.0 µM): 96%
residual activity ([20]; compound 0.01 µM): 90%
residual activity ([20]; compound 1.0 µM): 18%
residual activity ([21]; compound 0.01 µM): 89%
residual activity ([21]; compound 0.1 µM): 75%
residual activity ([21]; compound 1.0 µM): 34%
residual activity ([22]; compound 0.01 µM): 120%
residual activity ([22]; compound 0.1 µM): 121%
residual activity ([22]; compound 1.0 µM): 106%
residual activity ([23]; compound 0.01 µM): 85%
residual activity ([23]; compound 0.1 µM): 69%
residual activity ([23]; compound 1.0 µM): 33%
residual activity ([24]; compound 0.01 µM): 69%
residual activity ([24]; compound 0.1 µM): 60%
residual activity ([24]; compound 1.0 µM): 56%
residual activity ([25]; compound 0.01 µM): 95%
residual activity ([25]; compound 0.1 µM): 64%
residual activity ([25]; compound 1.0 µM): 15%
residual activity ([26]; compound 0.01 µM): 104%
residual activity ([26]; compound 0.1 µM): 105%
residual activity ([27]; compound 0.01 µM): 97%
residual activity ([27]; compound 0.1 µM): 104%
residual activity ([27]; compound 1.0 µM): 102%
residual activity ([28]; compound 0.01 µM): 94%
residual activity ([28]; compound 0.1 µM): 101%
residual activity ([28]; compound 1.0 µM): 88%
residual activity ([29]; compound 0.01 µM): 110%
residual activity ([29]; compound 0.1 µM): 119%
residual activity ([30]; compound 0.01 µM): 97%
residual activity ([30]; compound 0.1 µM): 93%
residual activity ([30]; compound 1.0 µM): 64%
residual activity ([31]; compound 0.01 µM): 100%
residual activity ([31]; compound 0.1 µM): 92%
residual activity ([31]; compound 1.0 µM): 54%
residual activity ([32]; compound 0.01 µM): 92%
residual activity ([32]; compound 0.1 µM): 73%
residual activity ([32]; compound 1.0 µM): 28%
residual activity ([33]; compound 0.01 µM): 94%
residual activity ([33]; compound 1.0 µM): 93%
residual activity ([34]; compound 0.01 µM): 104%
residual activity ([34]; compound 0.1 µM): 101%
residual activity ([34]; compound 1.0 µM): 95%
residual activity [35]: 94%
